Measurements as given in US20180170776A1, “ANTI-MICROBIAL ADDITIVE FOR USE IN FLOWER VASE WATER” (Enhold B.V., priority 2008, published 2018).

Key:
[1] = system: mixed bouquet of 12 flowers; assay: Flower life of a mixed bouquet of cut flowers in a vase with 1 litre of solution; assay type: in vivo, Rosa, Chrysanthemum santini, Gerbera, Antirrhinum, Solidago; conditions: 1 litre solution, 20° C., 12 per 24 hours of 1000 lux, additions per litre of base solution (BZC 30 ppm, GOX 100 SRU)
Method: A mixed bouquet of 12 flowers composed as follows: was placed in a vase with 1 litre of solution. The solution was either tap water or an aqueous base solution containing 10 g/1 of a composition containing 94.66% glucose, 5% citric acid, 0.34% conventional biocides. […] The vases with flowers were placed under 12 per 24 hours of 1000 lux, at 20° C.

[2] = system: bacterial contamination; assay: Bacterial contamination after 7 days; assay type: cell-based; conditions: for CFU (bacterial contamination after 7 days): below 10 hardly or not contaminated, above 1,000 heavily contaminated, additions per litre of base solution (BZC 30 ppm, GOX 100 SRU); for effect on bacterial contamination (in words): summary of the table
Method: was placed in a vase with 1 litre of solution. The solution was either tap water or an aqueous base solution containing 10 g/1 of a composition containing 94.66% glucose, 5% citric acid, 0.34% conventional biocides. […] The vases with flowers were placed under 12 per 24 hours of 1000 lux, at 20° C.

benzalkonium chloride [BZC]
FL (flower life) [1]: 12.0 days
CFU (bacterial contamination after 7 days) [2]: 900 1000 CFU/g stem
effect on bacterial contamination (in words) [2]: strong effect

glucose oxidase [GOX]
FL (flower life) [1]: 12.7 days
CFU (bacterial contamination after 7 days) [2]: 4,400 1000 CFU/g stem
effect on bacterial contamination (in words) [2]: strong effect
